The values that follow come from patent publication US20260070921A1, “COMPOUND, ENDOPLASMIC RETICULUM STRESS INHIBITOR, PHARMACEUTICAL PRODUCT, OPHTHALMIC AGENT, EYE DROPS, COMPOSITION, AND METHOD FOR PRODUCING COMPOUND” (KYOTO UNIVERSITY, priority 2022, published 2026).

Data set [1] concerns HEK293 cells. Kind of data set: Cell viability assay without ER stress inducer (cytotoxicity, WST-8). In kind it is cell-based. The following applies: 64 h. As for the experimental part:
HEK293 cells were treated with compound 1, compound 4, compound 5, or compound 6 (25 μM or 100 μM, respectively) for 64 hours. The vertical axis represents relative cell viability (unit: %), and the horizontal axis represents concentration (unit: μM). Cell viability was measured using a WST-8 cell counting kit. Error bars represent s.d. (n=3).
FIG. 31 is a graph showing the results of a cell viability assay using bafilomycin A1. HEK293 cells were treated with bafilomycin A1 in DMEM (10% FBS) for 48 hours. The vertical axis represents relative cell viability (unit: %), and the horizontal axis represents the concentration of bafilomycin A1 (unit: μM). Cell viability was measured using a WST-8 cell counting kit. Error bars represent s.d. (n=3).
FIG. 32 is a graph showing the results of a cell viability assay using MG132. HEK293 cells were treated with MG132 in DMEM (10% FBS) for 48 hours. The vertical axis represents relative cell viability (unit: t), and the horizontal axis represents the concentration of MG132 (unit: μM). Cell viability was measured using a WST-8 cell counting kit. Error bars represent s.d. (n=3).
The term “Efficacy” denotes ER (endoplasmic reticulum) stress inhibition activity. The term “Toxicity” denotes cytotoxicity. In the ER stress inhibition activity (Efficacy), “−” indicates no activity, “+” indicates weak activity, and “++” indicates strong activity. In addition, “XD7” in Table 1 below represents compound 6. That is, XD7 and compound 6 are the same compound.

Data set [2] in a line: Dynamic light scattering (DLS) of self-assemblies. In kind it is physicochemical. An excerpt: In the graphs on the left, the vertical axis “Z-ave. (nm)” represents the average particle size. In the graphs on the right, the vertical axis “Derived Count Rate (kcps)” represents the derived count rate. The horizontal axis represents the molar concentration (PM) of PBS (pH of 7.4) and DMEM (10% FBS). Error bars represent s.d. (n=3).
“Z-ave.” represents the average size of particles. Error bars represent s.d. (n=3).
“Z-average” represents the average size of particles. Error bars represent s.d. (n=3).

Data set [3] concerns HEK293 cells. Briefly: Fluorescence imaging of self-assemblies in living cells (DCVJ). The following applies: DCVJ 1.0 μM. Type of data set: cell-based. As for the experimental part:
HEK293 cells were incubated with compound 1, 4, 5, or 6 (25 or 100 μM) in the presence of 1.0 μM DCVJ in DMEM (10% FBS). Fluorescence and bright-field images were taken with a CV1000 confocal microscope equipped with a 40× objective lens (Yokogawa Electric Corporation).
The ability of compound 1 and its derivatives, compounds 4 to 6, to form assemblies was also monitored in living cells. […] HEK293 cells were treated with compound 1, 4, 5, or 6 (25 μM or 100 μM) and 1.0 μM of DCVJ for 8 hours. Fluorescence and bright-field images were taken with a CV1000 confocal microscope. HEK293 cells were treated with compound 1, 4, 5, or 6 (25 or 100 μM) and DCVJ (1.0 μM) for 8 hours and observed with a confocal microscope. […] The self-assembling ability of the molecules of compound 6 may be due to its cellular activity at that concentration, even at 25 μM. […] To further support the importance of self-organization formation in cellular activity, dose-response curves for compounds 1 and 6 were determined. The biological activity of the compounds' molecular assembly is expected to be more cooperative than that of the monomer and to show a steeper dose-response curve (Reference Material 18 below). […] Compound 6 is referred to as “selfonamide” below. […] P. A High-Throughput Screen for Aggregation-Based Inhibition in a Large Compound Library. J Med Chem 2007, 50 (10), 2385-2390. https://doi.org/10.1021/jm061317y.

Another data set concerns the target denatured BSA-flu (Bos taurus, UniProt P02769). Briefly: Co-assembly with fluorescently labeled BSA (BSA-flu), confocal imaging. Type of data set: binding. The following applies: 25° C. 19 h, excess unlabeled BSA 2.0 mg/mL. As for the experimental part:
To prepare denatured BSA-flu, a solution of BSA-flu (1.1 mg/mL) in PBS (pH of 7.4) was incubated at 80° C. for 1 hour. Native or denatured BSA-fluorescein (final concentration: 0.1 mg/mL) was added to a solution of compound 1 (100 μM) or compound 6 (25 μM) in PBS (pH of 7.4) containing 2.0 mg/mL BSA. The mixture was incubated at 25° C. for 19 hours and then images were taken with a CV1000 confocal microscope. The fluorescence intensity of the co-assemblies was quantified from the images obtained using ImageJ software.

Another data set relates to luciferase. Kind of data set: Luciferase-based refolding assay in live cells. Type of data set: cell-based. The following applies: compound 1 100 μM, compound 6 25 μM, 20 h. As for the experimental part:
HEK293 cells were seeded in 96-well plates (2×10^4 cells/well) and transfected with a luciferase expression plasmid (0.1 μg/well) using FuGENE HD (Promega). […] Refolding assay was performed as described in Walther, T. V.; Maddalo, D. Intracellular Refolding Assay. J Vis Exp 2012, No. 59. https://doi.org/10.3791/3540. Briefly speaking, luciferase was denatured in live cells by incubation at 45° C. for 30 minutes in the presence of 200 mM MOPS and 20 μg/mL cycloheximide. After the denaturation step, the cells were incubated at 37° C. for various times to allow the luciferase to refold. After cells were lysed with Reporter Lysis 5× Buffer (Promega), luciferase activity was measured.

Chain of denatured BSA-flu (P02769 25-607): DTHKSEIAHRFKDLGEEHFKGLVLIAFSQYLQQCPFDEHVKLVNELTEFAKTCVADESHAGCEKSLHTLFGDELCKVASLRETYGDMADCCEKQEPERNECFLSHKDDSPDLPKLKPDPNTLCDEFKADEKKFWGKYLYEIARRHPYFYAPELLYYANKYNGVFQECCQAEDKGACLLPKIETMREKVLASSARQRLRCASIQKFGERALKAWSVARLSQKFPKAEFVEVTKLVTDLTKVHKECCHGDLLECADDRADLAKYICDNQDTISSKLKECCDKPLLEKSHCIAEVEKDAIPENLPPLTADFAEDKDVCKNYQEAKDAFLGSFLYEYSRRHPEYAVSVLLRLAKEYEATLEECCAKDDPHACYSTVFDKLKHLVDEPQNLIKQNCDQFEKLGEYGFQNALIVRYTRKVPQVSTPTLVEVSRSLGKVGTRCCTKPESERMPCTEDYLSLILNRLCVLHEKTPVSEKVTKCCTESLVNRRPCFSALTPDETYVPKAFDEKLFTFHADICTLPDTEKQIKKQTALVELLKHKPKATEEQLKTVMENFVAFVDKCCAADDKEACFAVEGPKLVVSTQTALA

Take `NS(=O)(=O)c1ccc(Nc2ccn3c(n2)nc(=O)c2sc4cc(F)ccc4c23)cc1` [compound 1]: the Cytotoxicity entry with HEK293 cells [1] (up to 100 μM) is on record as “no obvious cytotoxicity”. The “Average size of the assemblies (diameter)” value in data set [2] (DMEM (10% FBS), 100 μM) is around 200 nm; in data set [2] (PBS (pH of 7.4), 100 μM), “about 700 nm”. The “Fluorescent particles within cells” value with HEK293 cells [3] (100 μM, after 8 hours) is given as “fluorescent particles were observed within the cells”. Also, on denatured BSA-flu, the “Co-assembly with native or denatured BSA-flu” value is “selectively formed co-assemblies with heat-denatured BSA”. Besides, the Refolding of luciferase result with luciferase is on record as “slightly inhibited refolding”.

As to `COc1ccc2c(c1)sc1c(=O)nc3nc(Nc4ccc(S(N)(=O)=O)cc4)ccn3c12` [compound 6], the Cytotoxicity entry was “no obvious cytotoxicity” with HEK293 cells [1] (at 25 μM) and “slightly reduced cell viability” in the data set on HEK293 cells [1] (at 100 μM). The “Average size of the assemblies (diameter)” value in data set [2] (cell culture medium, 25 μM) is reported as 130 nm. Besides, in the data set with HEK293 cells [3] (25 μM, 8 h), the Assemblies within cells result is recorded as “showed detectable assemblies within cells”. Also, the “Co-assembly with native or denatured BSA-flu” value on denatured BSA-flu is given as “selectively formed co-assemblies with heat-denatured BSA”. For the same molecule, the Refolding of luciferase entry in the data set with luciferase was “slightly inhibited refolding”.
